Measurements published in ChEMBL document CHEMBL4627413, “Targeted Delivery of Antisense Oligonucleotides Using Neurotensin Peptides” (J Med Chem, 2020).

What was measured:
Sortilin = biological target: T1, Sortilin (Homo sapiens, UniProt Q99523); test: Substrate activity at human SORT1 expressed in HEK293 cells assessed as compound uptake incubated for 2 hrs by flow cytometry; format: ADME, cell-based; details: hek293, 2 h
T1 sequence (Q99523 whole entry): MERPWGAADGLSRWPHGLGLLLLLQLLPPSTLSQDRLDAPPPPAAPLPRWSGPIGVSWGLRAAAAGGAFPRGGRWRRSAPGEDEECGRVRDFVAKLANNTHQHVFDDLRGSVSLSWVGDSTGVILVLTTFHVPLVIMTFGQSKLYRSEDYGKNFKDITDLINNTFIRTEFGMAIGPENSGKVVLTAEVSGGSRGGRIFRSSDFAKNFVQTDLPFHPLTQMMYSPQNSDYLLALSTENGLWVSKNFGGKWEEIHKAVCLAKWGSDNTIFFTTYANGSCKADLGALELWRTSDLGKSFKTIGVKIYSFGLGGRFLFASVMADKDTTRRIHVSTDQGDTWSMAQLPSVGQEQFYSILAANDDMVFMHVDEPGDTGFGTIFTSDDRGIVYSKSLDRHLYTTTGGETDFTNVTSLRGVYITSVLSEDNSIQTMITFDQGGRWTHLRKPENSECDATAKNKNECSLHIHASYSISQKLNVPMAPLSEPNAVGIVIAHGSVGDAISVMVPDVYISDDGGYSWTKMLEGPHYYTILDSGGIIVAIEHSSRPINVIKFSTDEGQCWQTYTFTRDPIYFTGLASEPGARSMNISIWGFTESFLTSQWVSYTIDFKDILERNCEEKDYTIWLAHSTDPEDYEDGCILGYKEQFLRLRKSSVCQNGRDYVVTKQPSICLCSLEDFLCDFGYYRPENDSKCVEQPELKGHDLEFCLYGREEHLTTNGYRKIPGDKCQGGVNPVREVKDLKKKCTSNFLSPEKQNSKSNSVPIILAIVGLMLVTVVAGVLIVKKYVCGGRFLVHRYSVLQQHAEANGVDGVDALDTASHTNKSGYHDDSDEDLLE

[1] = Drug uptake in HEK293 cells incubated for 2 hrs by flow cytometry; format: ADME, cell-based; details: human, hek293, 2 h

Km (Sortilin)	Vmax (Sortilin)	Drug uptake [1]	SMILES
80 nM	1397	Not Active	CC[C@H](C)[C@H](NC(=O)[C@H](Cc1ccc(O)cc1)NC(=O)[C@@H]1CCCN1C(=O)[C@H](CCCNC(=N)N)NC(=O)[C@H](CCCNC(=N)N)NC(=O)[C@@H]1CCCN1C(=O)[C@H](CCCCN)NC(=O)[C@H](CC(N)=O)NC(=O)[C@H](CCC(=O)O)NC(=O)[C@H](Cc1ccc(O)cc1)NC(=O)[C@H](CC(C)C)NC(=O)[C@@H](N)CCCCNC(=O)Cn1nnc2c1CC[C@H]1[C@@H](CC2)[C@H]1COC(=O)NCCOCCOCCNC(=O)CCCCC[N+]1=C(/C=C/C=C2/N(C)c3ccccc3C2(C)C)C(C)(C)c2ccccc21)C(=O)N[C@@H](CC(C)C)C(=O)O.[Cl-]
	1367		CC[C@H](C)[C@H](NC(=O)[C@H](Cc1ccc(O)cc1)NC(=O)[C@@H]1CCCN1C(=O)[C@H](CCCNC(=N)N)NC(=O)[C@H](CCCNC(=N)N)NC(=O)[C@@H]1CCCN1C(=O)[C@H](CCCCN)NC(=O)[C@H](CC(N)=O)NC(=O)[C@H](CCC(=O)O)NC(=O)[C@H](Cc1ccc(O)cc1)NC(=O)[C@H](CC(C)C)NC(=O)CNC(=O)[C@@H]1CCCN1C(=O)[C@H](CO)NC(=O)[C@H](CO)NC(=O)CNC(=O)[C@H](C)NC(=O)[C@@H]1CCCN1C(=O)[C@@H]1CCCN1C(=O)[C@@H]1CCCN1C(=O)[C@@H](N)CCCCNC(=O)Cn1nnc2c1CC[C@H]1[C@@H](CC2)[C@H]1COC(=O)NCCOCCOCCNC(=O)CCCCC[N+]1=C(/C=C/C=C2/N(C)c3ccccc3C2(C)C)C(C)(C)c2ccccc21)C(=O)N[C@@H](CC(C)C)C(=O)O.[Cl-]
